Assays:
[1] = target: T1, NaV1.7 (Homo sapiens, UniProt Q15858); test: Whole cell patch clamp, internal block of NaV1.7 current (compound in internal solution); format: cell-based; settings: compound applied internally, manual patch clamp, read-out: Nav1.7 Intracellular Inhibition
T1 construct: expressed in transfected cells; tetracycline-inducible, kept under hygromycin and blasticidin
How it was run: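 Tetracycline-induced NaV1.7 cells, whole-cell patch clamp at room temperature with compound in CsCl internal solution (pH 7.2), Ringer bath (pH 7.4). Held at −100 mV, steps to −20 mV; after baseline, four 30-s 5 Hz trains. Peak inward current at end of last train divided by baseline gives fraction remaining.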

[2] = target: T1, NaV1.7; test: Whole cell patch clamp, external block of NaV1.7 current (compound in external solution); format: cell-based; settings: compound applied externally, read-out: Nav1.7 Extracellular Inhibition; for inhibition at 30 µM: % inhibition at test concentration 30 μM
Protocol: Representative compounds of the invention were synthesized according to the described methods and tested for the ability to inhibit voltage-gated sodium channels.
NaV1.7 was expressed upon induction with tetracycline. Cells were cultured in DMEM containing 10% dialyzed Fetal Bovine Serum (VWR, Radnor, Pa.), 1% Glutamax (VWR, Radnor, Pa.), 1% Penicillin-Streptomycin (VWR, Radnor, Pa.), 100 mg/L Hygromycin (Thermo Fisher Scientific, Waltham, Mass. and 5 mg/L Blasticidin (Alfa Aesar, Haverhill, Mass.). Cells were grown and maintained at 37° C. in a humidified environment containing 10% CO2 in air. Cells were detached from the culture flask for passage and harvested using 0.05% Trypsin-EDTA (Thermo Fisher Scientific, Waltham, Mass.). To induce NaV1.7, cells were induced with tetracycline (0.1-1 μg/mL, IBI Scientific, Peosta, Iowa) the day before recording and plated onto 24-well plates. Cells were washed with DPBS (VWR, Radnor, Pa.), trypsinized and then triturated five times in 10 mL of growth media to break apart cell aggregates. For one 24-well plate, 2 mL of cell suspension was mixed with 23 mL of fresh growth media and 0.1-1 μg/mL tetracycline added. 1 ml of mixed media with cells was then added to each well of a 24-well plate, with a 12 mm coverslip already placed in the bottom of the well. Cells were then incubated in 37° C. and 10% CO2 overnight.
The intracellular solution contained the following (in mM) CsCl 135, NaCl 10, EGTA 10, HEPES 10, MgCl2 2, adjusted to pH 7.2 with CsOH. The external solution was a normal Ringer solution containing (in mM) NaCl 155, HEPES 10, glucose 10, KCl 3.5, CaCl2 1.5, MgCl2 1 adjusted to pH 7.4 with NaOH. CsCl is from Alfa Aesar, Haverhill, Mass. All other chemicals are from Sigma-Aldrich, St. Louis, Mo. In order to test the degree of internal block by test compounds the compounds were dissolved in internal solution at the indicated test concentration. […] In order to test the degree of external block by test compounds the compounds were dissolved in external solution at the indicated test concentration.
18-24 hours after cells were induced with tetracycline, coverslips were placed into a chamber filled with Normal Ringer solution at room temperature and the chamber placed on a microscope. Pipettes were pulled from borosilicate glass on a P97 puller (Sutter Instrument, Novato, Calif.) and polished with a MF-830 Microforge (Narishige International USA, Inc, Amityville, N.Y.) to have a resistance of 1.5-2.5 MΩ when filled with CsCl internal solution at room temperature. Healthy cells (those that are round and translucent with no visible blemishes) were chosen for seal formation. A seal was formed between the pipette and the cell, and a brief pulse of suction was used to “break in” and establish the whole-cell configuration. The membrane potential was held at −100 mV before the voltage protocol began. Only cells with series resistance between 1.5-5 MΩ were retained for analysis. The voltage protocol was as follows: Cells were held at −100 mV for 12 ms followed by a hyperpolarizing step to −105 mV for 12 ms to monitor the leak. Cells were then stepped back to −100 mV for 40 ms. Cells were then depolarized to −20 mV for 10 ms and then returned to −100 mV for 26 ms.
Once the recording was started, the voltage protocol was run at 30 second intervals for 5 minutes to get a stable baseline. This is followed by 5 Hz stimulation of the same voltage protocol run until the end of experiment. […] The test compound is added for 5 minutes before washing out with normal Ringer's solution. Currents were recorded using PatchMaster software with Heka EPC10 (HEKA Electronics, Lambrecht, Germany). Only cells with inward current amplitudes at −20 mV between 400 pA and 4 nA were accepted. In addition, cells having leak currents greater than 10% of their current amplitudes were discarded. […]

[3] = PAMPA membrane permeability assay; format: in vitro ADME; settings: PAMPA permeability coefficient, GIT lipid, buffer pH 7.4, 4 hours incubation
How it was run: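 Passive permeability across GIT lipid-coated artificial membrane; compounds at 50 μM in pH 7.4 buffer in donor wells, incubated 4 h. Donor, acceptor and reference concentrations read by UV spectroscopy, permeability coefficient calculated from spectral AUCs.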

T1 sequence (Q15858 whole entry): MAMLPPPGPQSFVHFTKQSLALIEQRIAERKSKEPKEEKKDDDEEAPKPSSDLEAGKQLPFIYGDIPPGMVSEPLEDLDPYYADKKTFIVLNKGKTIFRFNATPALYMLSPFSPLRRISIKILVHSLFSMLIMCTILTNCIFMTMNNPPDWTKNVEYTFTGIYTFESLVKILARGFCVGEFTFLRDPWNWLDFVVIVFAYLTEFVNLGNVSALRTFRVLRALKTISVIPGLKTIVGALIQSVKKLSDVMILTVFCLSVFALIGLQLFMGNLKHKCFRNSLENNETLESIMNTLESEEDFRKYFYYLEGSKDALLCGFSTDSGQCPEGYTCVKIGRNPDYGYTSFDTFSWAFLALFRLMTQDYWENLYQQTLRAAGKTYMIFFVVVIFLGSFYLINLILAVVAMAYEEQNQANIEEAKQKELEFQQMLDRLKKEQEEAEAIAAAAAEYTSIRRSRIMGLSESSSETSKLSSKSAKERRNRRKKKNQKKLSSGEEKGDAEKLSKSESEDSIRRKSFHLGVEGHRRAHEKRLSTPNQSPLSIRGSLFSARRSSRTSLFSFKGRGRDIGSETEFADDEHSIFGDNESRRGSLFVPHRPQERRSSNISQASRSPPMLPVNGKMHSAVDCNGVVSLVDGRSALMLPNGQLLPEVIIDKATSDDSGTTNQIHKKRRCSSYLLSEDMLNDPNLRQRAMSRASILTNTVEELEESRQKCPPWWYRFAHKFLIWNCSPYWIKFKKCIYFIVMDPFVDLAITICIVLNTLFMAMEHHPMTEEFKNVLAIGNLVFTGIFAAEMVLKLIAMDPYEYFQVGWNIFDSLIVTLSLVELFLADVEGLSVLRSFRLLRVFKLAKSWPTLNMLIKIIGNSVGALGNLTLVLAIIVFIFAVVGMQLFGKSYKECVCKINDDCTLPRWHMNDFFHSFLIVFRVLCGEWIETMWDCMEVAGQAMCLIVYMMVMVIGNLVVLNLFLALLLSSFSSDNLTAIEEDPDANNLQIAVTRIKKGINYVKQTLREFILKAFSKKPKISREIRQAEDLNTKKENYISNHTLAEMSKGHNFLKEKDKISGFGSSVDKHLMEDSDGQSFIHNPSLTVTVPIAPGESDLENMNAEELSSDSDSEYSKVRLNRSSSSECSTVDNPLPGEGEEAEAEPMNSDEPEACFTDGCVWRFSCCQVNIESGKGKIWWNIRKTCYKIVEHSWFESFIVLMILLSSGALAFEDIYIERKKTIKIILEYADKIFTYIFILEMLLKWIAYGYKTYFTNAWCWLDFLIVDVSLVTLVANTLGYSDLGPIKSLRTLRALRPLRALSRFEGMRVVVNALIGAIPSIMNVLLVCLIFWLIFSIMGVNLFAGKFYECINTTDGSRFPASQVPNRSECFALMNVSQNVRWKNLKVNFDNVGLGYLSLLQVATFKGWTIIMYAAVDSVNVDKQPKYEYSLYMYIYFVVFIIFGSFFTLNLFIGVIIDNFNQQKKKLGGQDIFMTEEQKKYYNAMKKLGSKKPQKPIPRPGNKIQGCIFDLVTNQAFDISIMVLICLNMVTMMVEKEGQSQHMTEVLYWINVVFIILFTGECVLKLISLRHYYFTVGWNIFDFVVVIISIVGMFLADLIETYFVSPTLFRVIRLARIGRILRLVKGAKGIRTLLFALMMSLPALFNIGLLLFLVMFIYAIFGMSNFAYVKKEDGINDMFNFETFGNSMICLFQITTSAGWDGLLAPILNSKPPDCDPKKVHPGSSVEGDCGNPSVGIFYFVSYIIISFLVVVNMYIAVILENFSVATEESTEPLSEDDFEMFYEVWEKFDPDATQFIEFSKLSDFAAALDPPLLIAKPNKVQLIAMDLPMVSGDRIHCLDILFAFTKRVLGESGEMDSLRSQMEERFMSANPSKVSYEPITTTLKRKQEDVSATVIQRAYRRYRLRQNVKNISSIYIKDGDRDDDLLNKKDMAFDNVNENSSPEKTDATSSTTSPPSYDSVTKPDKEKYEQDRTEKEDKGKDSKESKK

## CCOC(=O)c1ccc[n+](CC(=O)Nc2c(C)cccc2C)c1.[Br-] [Compound 25A]
[1]
  inhibition at 10 µM: 70 to 95%
[2]
  inhibition at 30 µM: 40 to 70%
[3]
  PAMPA (10^−6 cm/s): + (<0.1 10^−6 cm/s)

## CCc1ccc[n+](CC(=O)Nc2c(C)cccc2C)c1.[Br-] [Compound 17A]
[1]
  inhibition at 10 µM: 70 to 95%
  inhibition at 32 µM: 70 to 95%
[2]
  inhibition at 30 µM: < 40%
[3]
  PAMPA (10^−6 cm/s): + (<0.1 10^−6 cm/s)

## Cc1cccc(C)c1NC(=O)C[n+]1cccc(-c2ccccc2)c1.[Br-] [Compound 12A, 1-(2-((2,6-dimethylphenyl)amino)-2-oxoethyl)-3-phenylpyridin-1-ium bromide]
[1]
  inhibition at 10 µM: > 95%
  inhibition at 32 µM: > 95%
[2]
  inhibition at 30 µM: < 40%
[3]
  PAMPA (10^−6 cm/s): + (<0.1 10^−6 cm/s)

## Cc1cccc(C)c1NC(=O)C[n+]1ccccc1-c1ccccc1.[Br-] [Compound 16A]
[1]
  inhibition at 10 µM: > 95%
  inhibition at 32 µM: > 95%
[2]; % inhibition at test concentration 100 μM
  inhibition at 100 µM: < 40%
[3]
  PAMPA (10^−6 cm/s): ++ (0.1-2.0 10^−6 cm/s)

## Cc1cccc(C)c1NC(=O)C[n+]1c(C)cccc1C.[Br-] [Compound 6A, 1-(2-((2,6-dimethylphenyl)amino)-2-oxoethyl)-2,6-dimethylpyridin-1-ium bromide]
[1]
  inhibition at 32 µM: > 95%
[2]; % inhibition at test concentration 1,000 μM
  inhibition at 1000 µM: 40 to 70%
[3]
  PAMPA (10^−6 cm/s): ++ (0.1-2.0 10^−6 cm/s)

## CCc1cccc[n+]1CC(=O)Nc1c(C)cccc1C.[Br-] [Compound 13A]
[1]
  inhibition at 32 µM: 70 to 95%
[2]
  inhibition at 30 µM: < 40%
[3]
  PAMPA (10^−6 cm/s): + (<0.1 10^−6 cm/s)

Reference: patent publication US10934263B2, “Charged ion channel blockers and methods for use” (Nocion Therapeutics, Inc., priority 2019, dated 2021)
